The experiment deals with T1, α-Gal A mutant form V339A (Homo sapiens, UniProt P06280, V339A).
T1 construct: expressed in transfected cells; host or cells: HEK-293
T1 sequence (P06280 32-429 V339A): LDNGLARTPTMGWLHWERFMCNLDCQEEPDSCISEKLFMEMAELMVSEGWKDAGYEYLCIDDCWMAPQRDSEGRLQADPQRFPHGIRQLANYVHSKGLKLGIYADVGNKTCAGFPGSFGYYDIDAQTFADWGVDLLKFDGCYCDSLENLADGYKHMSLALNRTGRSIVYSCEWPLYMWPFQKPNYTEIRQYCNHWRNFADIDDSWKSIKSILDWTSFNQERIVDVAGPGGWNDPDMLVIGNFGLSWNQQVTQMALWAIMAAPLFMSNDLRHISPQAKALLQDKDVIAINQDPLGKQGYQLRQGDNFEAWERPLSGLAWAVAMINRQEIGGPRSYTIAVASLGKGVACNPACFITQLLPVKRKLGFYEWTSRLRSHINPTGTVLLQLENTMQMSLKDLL
The experiment in a line: α-Gal A activity in lysates of transfected HEK-293 cells, V339A. Type of experiment: cell-based. How it is done: Baseline and 10 μM migalastat α-Gal A activity: Differences in the α-Gal A activity between lysates incubated in the absence and presence of 10 μM migalastat were determined using a one-tailed, Mann Whitney U test; an increase at 10 μM migalastat with a p<0.05 was considered significant.
10 μM migalastat α-Gal A activity (% WT)=(α-Gal A activity in mutant transfected cell lysates incubated with 10 μM migalastat÷α-Gal A activity in wild-type transfected cell lysates without migalastat)*100.
Absolute increase (% WT)=is the 10 μM migalastat α-Gal A activity (% WT) minus the baseline α-Gal A activity (% WT).
Relative increase is the 10 μM migalastat α-Gal A activity in mutant transfected cell lysates÷baseline α-Gal A activity in mutant transfected cell lysates incubated without migalastat.

The mark [1] stands for this setting: HEK-293 lysates, 10 μM migalastat, 5 days, mean ± SEM.

In the case of `OC[C@H]1NC[C@H](O)[C@@H](O)[C@H]1O` [migalastat, (2R,3S,4R,5S)-2-(hydroxymethyl) piperdine-3,4,5-triol], under “10 μM migalastat minus baseline”, the “Absolute increase (% WT)” value is listed as 16.8 % WT. Further, the Relative increase (10 μM migalastat ÷ baseline activity) is 1.33. In addition, under setting [1], the “10 μM migalastat α-Gal A activity” value came to 25174 ± 2895 nmol/mg/h and the “10 μM migalastat α-Gal A activity (% WT)” value was 65.6 ± 4.2 % WT.
